The results in this text go back to patent US20070010444A1, “Novel mediator of neurotransmitter and psychostimulant responses” (The Regents of the University of California, priority 2005, published 2007).

“Also recorded” adds a separate entry of the source. Counter-ions that a name gives are not always drawn.

Experiment [1] relates to C. elegans. Nature of the experiment: Muscimol effect on rate of pharyngeal contractions (plates with food). The format is in vivo, Caenorhabditis elegans. To be noted: N2 and eg814, plates with 0, 0.1 and 1 mM muscimol, 20 and 45 minutes.
The subject of experiment [2] is C. elegans. Nature of the experiment: Chronic effect of amphetamine on pharyngeal pumping (plates, 20 hours). In kind it is in vivo, Caenorhabditis elegans. The following applies: 5 mM amphetamine plates.
For experiment [3], the system named is C. elegans. Nature of the experiment: Acute amphetamine assay of pharyngeal pumping (90 minutes in M9 buffer). The format is in vivo, Caenorhabditis elegans.
In experiment [4] the test system is C. elegans. Briefly: Growth of worms on agar plates containing amphetamine.

As to `NCc1cc(=O)[nH]o1` [muscimol], the inhibition of pumping entry in the experiment on C. elegans [1] was “exhibited similar inhibition of pumping after both 20 and 45 minutes; also recorded: inhibited pumping in both N2 and eg814 worms with a very similar dose response”.
For `C[C@H](N)Cc1ccccc1` [amphetamine, d-amphetamine sulfate], the “rate of pharyngeal contractions” value with C. elegans [2] (N2, first day adults) is reported as “greatly reduced rate of pharyngeal contractions”. For the same molecule, the “rate of pharyngeal contractions (pumping)” value in the experiment on C. elegans [2] (eg814 mutant, first day adults) was “sustained resistance to the inhibition of pumping”. Also, the “pharyngeal contractions, acute effect” value with C. elegans [3] (N2, 90 minutes in solution of 0, 5 and 10 mM amph) was “inhibits pharyngeal contractions of N2 worms in a dose-dependent manner”; with C. elegans [3] (eg814 mutant, 90 minutes in solution of 0, 5 and 10 mM amph), “exhibits resistance to acute amphetamine”. This molecule yielded a gravid adults with C. elegans [4] (eg814 mutant, 5 mM amph, plated at first larval stage, after 5 days) of approximately 100%. For the same molecule, the growth rates result in the experiment on C. elegans [4] (eg814 mutant, 5 mM amphetamine) is listed as “unaffected growth rates”. Moreover, the growth of worms entry in the experiment with C. elegans [4] (long-term exposure, millimolar levels of amphetamine in agar plates) is given as “dramatically suppressed the growth of worms”. Besides, the animals reaching adulthood result in the experiment on C. elegans [4] (wild-type (N2), 5 mM amphetamine plates, after 5 days) is given as “no wild-type animals are adults”.
